According to patent publication US9951366B2, “Cell-free protein synthesis method and device using a eukaryotic cell lysate in the presence of a caspase inhibitor and the use of a caspase inhibitor for increasing the yield and/or the stability of the synthesized proteins in such a method” (Fraunhofer-Gesellschaft zur Foerderung der angewandten …, priority 2013, dated 2018):
Peptide text beside a SMILES is read from it. * marks the point of attachment. Cbz = O=C(OCc1ccccc1)*; CH2F = FC*

Columns and labels:
[1] = tested on: cell-free eukaryotic translation system on the basis of a cell extract from Spodoptera frugiperda (Sf21) insect cells; test: Cell-free synthesis of SII-eYFP, fluorescence intensity (phosphorimager), Example 1; type: biochemical; details: dialysis system after 48 h, −V, +CI versus −CI, densitometric evaluation
Method: The expression of the model protein was analyzed in the batch system and the dialysis system (50 μl reaction chamber; 1000 μl feeding chamber; cut-off of the membrane=10 kDa) over a period of 48 h. The translation mixtures were each incubated in the batch system and the dialysis system with (+) and without (−) insect cell vesicles (V) and with (+) and without (−) caspase inhibitor (CI) (at 27° C. and 600 rpm). The protein synthesis was carried out in the presence of the radioactively labeled amino acid ^14C-leucine in order to be able to determine the quantity of de novo synthesized target protein by means of hot TCA precipitation and scintillation measurement. The translation reactions were interrupted at particular time points (0 h, 2 h, 4 h, 24 h and 48 h) and analyzed as follows: 5 μl of the mixture was precipitated in hot TCA or ice-cold acetone in each case. A further 5 μl was resuspended in 25 μl PBS. The remaining sample volume was separated by means of a centrifuging step into the supernatant fluid (SN) and the vesicular fraction (VF). […] The samples resuspended in PBS were examined in the phosphorimager system (Typhoon TRIO+ imager, GE Healthcare) for their fluorescence intensity. For this purpose, 25 μl samples were pipetted into each cavity of the Ibidi slides and measured, the excitation of the samples taking place at 488 nm and the emission being measured at 526 nm.

[2] = tested on: Mel-hEGFR-eYFP in microsomes of the insect cell lysate; test: Multiple (repetitive) synthesis of Mel-hEGFR-eYFP into microsomes of the insect cell lysate; type: biochemical, Spodoptera frugiperda
Method: A suitable method for increasing the concentration of a particular target protein in the lumen or the membrane of the insect cell vesicles lies in carrying out multiple syntheses. This procedure leads to a longer dwell time of the de novo synthesized target proteins in the translation mixture. For successful conversion, it is therefore absolutely necessary to ensure the stability of the target proteins even after relatively long incubation times (>1.5 h) in the translation mixture. For this purpose, the caspase inhibitor Z-VAD-FMK was added to the translation reaction. The multiple synthesis of the target protein was carried out as follows: the microsomes of the translation mixture incubated under standard conditions (27° C., 1.5 h) were pelleted with a centrifugation step at 16,000 g and resuspended in a new translation-active cell lysate without microsomes and incubated again for 1.5 h at 27° C. in the presence of the caspase inhibitor Z-VAD-FMK. In the present experimental example, the synthesis was repeated four times. Following each synthesis step, the yield of radioactively labeled protein in the translation mixture, the supernatant and the vesicular fraction were determined. In addition, 5 μl of the translation mix were precipitated in acetone and subsequently separated out electrophoretically. […] The addition of the caspase inhibitor to the translation reaction enables a synthesis of the target protein over a total of 6 h.

[3] = tested on: cell-free eukaryotic translation system on the basis of a cell extract from Spodoptera frugiperda (Sf21) insect cells; test: Cell-free expression of membrane proteins (ETB, Hb-EGF, bacteriorhodopsin), protein yield by scintillation measurement; type: biochemical
Source text: Here, the influence of the caspase inhibitor on the expression of different membrane proteins in the eukaryotic translation system was investigated more closely. For this purpose, three different model proteins were selected: the endothelin-B receptor (ETB) is a G-protein coupled receptor with seven transmembrane domains which was used cloned into the vector pIX3.0 (Qiagen) for the expression. Furthermore, the type I transmembrane protein heparin-binding EGF-like growth factor (Hb-EGF), N-terminally fused to the melittin signal sequence and C-terminally fused to eYFP, present in the vector pIX3.0, was used for the expression. In addition, the expression of the membrane protein bacteriorhodopsin which also has seven transmembrane domains and was present in the vector pMA (GeneArt) was investigated. The three proteins were each expressed in the batch and dialysis systems without (−) and with (+) the addition of the caspase inhibitor (CI) in the presence of ^14C-leucine for 48 h (27° C.; 600 rpm, Eppendorf Thermomixer Comfort) and analyzed as in example 1. […] The expression of each of the three membrane proteins (ETB, 49.3 kDa; Hb-EGF, 51 kDa; bacteriorhodopsin, 26.9 kDa) was able to be increased in the dialysis system (comparison of the dialysis batches +CI and −CI) with the addition of the caspase inhibitor by approximately 100% (FIG. 2).

[4] = from synthesis steps 1 to 4, in presence of Z-VAD-FMK
[5] = dialysis system 48 h, +CI vs −CI

COC(=O)C[C@H](NC(=O)[C@H](C)NC(=O)[C@@H](NC(=O)OCc1ccccc1)C(C)C)C(=O)CF [Z-VAD-FMK, benzyloxycarbonyl-Val-Ala-Asp-[O-methyl]-fluoromethylketone] (Cbz-Val-Ala-Asp(OMe)-CH2F)
fluorescence signal of SII-eYFP, fold more intense [1]: 3.7 times
total time over which synthesis of the target protein is enabled ([2]; four repeated syntheses of 1.5 h at 27° C. in presence of caspase inhibitor): 6 h
increase of yield of target protein, total protein in the translation mixture [2, 4]: 110%
increase of yield of target protein, vesicular fraction [2, 4]: 180%
increase of expression of ETB [3, 5]: approximately 100%
increase of expression of Hb-EGF [3, 5]: approximately 100%
increase of expression of bacteriorhodopsin [3, 5]: approximately 100%
increase of maximum achievable yields of membrane protein, average ([3]; dialysis system, addition of caspase inhibitor): approximately 100%
